“And” between values parts separate entries of the source, which are not always exact repeats. Identical values can stand only once. “Also recorded” adds a separate entry of the source. Like-named read-outs stand apart in the source and are kept apart here.
Columns and labels:
[1] = test system: Vero cells; assay: Cytotoxicity resazurin assay; type: cell-based; settings: Chlorocebus sabaeus, 48 hours, ±standard deviation, maximum concentration 2 mM
Procedure: The cytotoxicity of the synthesised compounds was evaluated using the resazurin assay. The assay involves live cells converting oxidized blue resazurin dye to pink, highly fluorescent resorufin through irreversible enzymatic reduction.[44] This non‐toxic reagent is a useful instrument for determining drug toxicity and cell growth.
Dulbecco's modified Eagle's medium (DMEM) with high glucose (Separations) supplemented with 1 % L‐glutamine, non‐essential amino acids, and penicillin‐streptomycin (Sigma Aldrich), and 10 % fetal bovine serum (Thermofisher Scientific) was used to cultivate Vero cells. The cells were kept at 37 °C and 5 % CO2 in a humidified environment. For the assay, 96 well plates were prepared by pipetting 100 μL of cell suspension (60 000 cells/mL) per well and incubating the plates for 24 hours. The cells were then treated with seven two‐fold concentration dilutions of: (1) 1 μM emetine dihydrochloride (Sigma Aldrich) solution (positive control); (2) 2 mM experimental compound solutions. Cell‐free growth medium was included as a blank. The treated plates were incubated for 48 hours.
To initiate the resazurin assay, 50 μL of sterile‐filtered resazurin sodium salt (Sigma Aldrich) solution (0.01 % in phosphate‐buffered saline (PBS)) was added to the prepared plates and then incubated for 2 hours. A Thermofisher Scientific's GO Multiscan plate reader was used to measure the absorbance at 570 and 600 nm. SkanIt 4.0 Research Edition software was used to perform the data analysis for every biological replicate. After subtracting background absorbance (600 nm) from the 570 nm absorbance data, the mean absorbance was computed, and the percentage of viable cells was estimated using the formula below: Cellviability%=(ΔAbssample-ΔAbsblank)/(ΔAbsnegcontrol-ΔAbsblank)X100
GraphPad Prism 5 was used to calculate the IC50 and Z‐score for each compound's biological replicate. The mean IC50 of the biological replicates and standard deviation (SD) was calculated to determine the final IC50 of each compound.

[2] = test system: L. major (strain NIH S (MHOM/SN/74/Seidman)) promastigotes; assay: Antipromastigote resazurin assay; type: cell-based, Leishmania major; settings: for inhibition at 10 µM: L. major strain IR‐173 (as headed) promastigotes, read-out: Antipromastigote growth inhibition (%); for IC50: promastigotes, maximum concentration 2 mM, ±standard deviation
[3] = test system: L. major intramacrophage amastigotes; assay: Intramacrophage antileishmanial growth inhibition assay; type: cell-based, Leishmania major; settings: for inhibition at 10 µM: Leishmania major, L. major strain IR‐173 (as headed) intramacrophage amastigotes, read-out: Anti‐amastigote growth inhibition (%)
Procedure: (§1) A modified resazurin assay[47, 48] and the two Leishmania strains were also used to assess the efficacy of synthesised compounds against intramacrophage parasites.
(§2) Human monocytic leukemia (THP‐1) cells were cultured in RPMI 1640 medium with L‐glutamine (Sigma Aldrich) supplemented with, 1 % penicillin/streptomycin solution (Lonza), 10 % fetal bovine serum (FBS; Thermofisher Scientific) and 2 g/L sodium bicarbonate (Sigma Aldrich). The cells were maintained in a humidified environment at 37 °C and 5 % CO2.
(§3) For the intramacrophage assay, a 500 000 cells/mL THP‐1 cell suspension was prepared, 25 ng/mL phorbol 12‐myristate 13‐acetate (PMA) added and the suspension seeded in 96 well plates (Nunc, Thermofisher Scientific) at 200 μL/well. Cell‐free growth medium was included as the blank. The plates were incubated for 48 hours in a humidified environment at 37 °C and 5 % CO2 to encourage the differentiation of the suspended cells to adherent macrophages.
(§4) To eliminate non‐adherent cells after the PMA treatment, the plates were carefully washed once with warm PBS. Then, a premade promastigote suspension ([…]) was added. The suspension consisted of stationary phase promastigotes in THP‐1 cell growth medium, with a multiplicity of infection (MOI) of 30 : 1. Parasite‐free medium was also added to selected THP‐1 cell‐containing wells to serve as parasite blank. The plates were thoroughly rinsed four times with warm PBS to get rid of extracellular parasites after being cultured for 24 hours to encourage macrophage infection. The cells were then treated with 160 μL of growth medium and 40 μL of either solvent (parasite blank and negative control with parasites) or 40 μL of compound solutions. For a dual‐point activity screening, 10 μM and 2 mM of compound were prepared in separate plates. Amphothericin B (10 μM) served as the standard antileishmanial drug. The plates were incubated for 72 hours in a humidified environment at 37 °C and 5 % CO2.
(§5) For the plates treated with 10 μM of compound, any serum and extracellular promastigotes that remained were carefully removed from the wells by rinsing with warm PBS. The wells were then treated with 20 μL of 0.05 % sodium dodecyl sulphate (SDS; Sigma Aldrich) in PBS for 30 sec to lyse the macrophages. Lysis was terminated with the addition of 180 μL promastigote growth medium with 10 % FBS. For the resazurin assay, 10 μL of resazurin solution (0.025 % in PBS) was added to each well and the plates were further incubated at 37 °C in for 72 hours in the dark to measure amastigote recovery to proliferative promastigotes.
Any remaining extracellular promastigotes were afterwards carefully removed from the wells by rinsing with warm PBS. The wells were then treated with 50 μL of resazurin solution (0.01 % in PBS) and the plates were further incubated at 37 °C for 4 hours in the dark to assess host cell viability.
(§6) A Thermofisher Scientific's GO Multiscan plate reader was used to measure absorbance at 570 nm and 600 nm. SkanIt 4.0 Research Edition software was used to perform the data analysis for every biological replicate. Background absorbance (600 nm) was subtracted from the 570 nm absorbance data and the mean absorbance was computed.
(§7) For the activity screening, the following formula was used to determine growth inhibition percentage: Growthinhibition%=100-[(ΔAbssample-ΔAbsblank)/(ΔAbsnegcontrol-ΔAbsblank)X100]

[4] = test system: Leishmania donovani (strain 9515 (MHOM/IN/95/9515)) promastigotes; assay: Antipromastigote resazurin assay; type: cell-based; settings: for IC50: promastigotes, maximum concentration 2 mM, ±standard deviation, read-out: L. donovani 9515 antipromastigote IC50; for inhibition at 10 µM: L. donovani strain 9515 promastigotes, read-out: Antipromastigote growth inhibition (%)
Procedure: The antipromastigote activity of synthesised compounds was evaluated using a modified method of the resazurin assay[45, 46] against two Leishmania strains.
Leishmania donovani (strain 9515 (MHOM/IN/95/9515)) and L. major (strain NIH S (MHOM/SN/74/Seidman)) promastigotes were cultured in M199 with Hank's salts and 0.68 mM L‐glutamine (Sigma Aldrich) supplemented with 0.0005 % hemin, 0.0001 % biotin, 0.1 mM adenine (Sigma Aldrich), 10 % fetal bovine serum, 50 U/mL Penicillin/Streptomycin solution, 4.2 mM sodium bicarbonate and 25 mM Hepes buffer. The promastigotes were maintained at an adjusted pH of 7.3–7.4 growth medium at 26 °C. […] Amphothericin B (10 μM) served as the standard antileishmanial drug and parasite‐free growth medium was included as the blank. The plates were incubated for 48 hours at 26 °C in humidified environment.
Following the initial incubation, 50 μL of resazurin solution (0.01 % in PBS) was added to each well and the plates underwent further incubation at 26 °C for 24 hours in the dark. A Thermofisher Scientific's GO Multiscan plate reader was used to measure absorbance at 570 nm and 600 nm. SkanIt 4.0 Research Edition software was used to perform the data analysis for every biological replicate. Background absorbance (600 nm) was subtracted from the 570 nm absorbance data and the mean absorbance was computed. The cell viability and data analysis were performed as indicated in the cytotoxicity assay.

[5] = test system: L. donovani strain 9515 intramacrophage amastigotes; assay: Intramacrophage antileishmanial growth inhibition assay; type: cell-based; settings: Leishmania donovani, read-out: Anti‐amastigote growth inhibition (%)
Procedure: as §1, §2, §3, §4, §5, §6, §7

[6] = test system: L. donovani strain 1S amastigote; set-up: method as in PMID 33491807; settings: previous study; cited from earlier work
[7] = test system: Vero; set-up: method as in PMID 33491807; settings: cited from earlier work
[8] = test system: L. donovani 1S promastigotes; set-up: method as in PMID 33491807; settings: read-out: L. donovani 1S promas. IC50; cited from earlier work

| Structure (SMILES) | IC50 [1] | SI2: Selectivity index=IC50 Vero/L. major antipromastigote IC50 [2] | inhibition at 10 µM ([2]; Leishmania major) | melting point | inhibition at 10 µM [3] | SI1: Selectivity index=IC50 Vero/L. donovani 9515 antipromastigote IC50 [4] | IC50 ([4]; Leishmania donovani) | inhibition at 10 µM ([4]; Leishmania donovani) | inhibition at 10 µM [5] | IC50 ([2]; Leishmania major) | activity against L. donovani strain 1S amastigote [6] | IC50 [7] | IC50 [8] | IC50 [2] | host cell and parasite death in L. major anti‐amastigote screening ([3]; 2 mM of compound, L. major only) | IC50 [4] |
| --- | --- | --- | --- | --- | --- | --- | --- | --- | --- | --- | --- | --- | --- | --- | --- | --- |
| O=S1(=O)c2ccccc2N=CN1CCOc1ccc(Br)cc1 [Compound 10, 2‐[2‐(4‐Bromophenoxy)ethyl]‐2H‐benzo[e][1,2,4]thiadiazine‐1,1‐dioxide] | 663 ± 24 µM | 0.47 | 0% | 217 to 220 °C | 0% | 0.73 | 906 ± 62.1 µM | 0% | 0% |  |  |  |  |  |  |  |
| O=S1(=O)NC=Nc2ccccc21 [Compound 1, 2H‐Benzo[e][1,2,4]thiadiazine‐1,1‐dioxide] | 323 ± 215 µM | 0.38 | 0% | 223 to 226 °C | 0% | 0.53 | 612 ± 30.9 µM | 10% | 0% | 861 ± 46.5 µM | sub‐micromolar activity | > 100 µM | < 10 µM and 7.33 µM |  |  |  |
| O=S1(=O)c2ccccc2N=CN1CCO [Compound 2, 2‐(2‐Hydroxyethyl)‐2H‐benzo[e][1,2,4]thiadiazine‐1,1‐dioxide] | 752 ± 174 µM | 0.70 | 0% | 167 to 170 °C | 0% | 0.90 | 839 ± 41.9 µM | 0% | 0% |  |  |  |  |  |  |  |
| COCCN1C=Nc2ccccc2S1(=O)=O [Compound 3, 2‐(2‐Methoxyethyl)‐2H‐benzo[e][1,2,4]thiadiazine‐1,1‐dioxide] | 502 ± 152 µM |  | 0% |  | 0% |  | 482 ± 7.57 µM | 2% | 0% | 701 ± 40.8 µM |  |  |  |  |  |  |
| O=S1(=O)c2ccccc2N=CN1CCOc1ccccc1 [Compound 9, 2‐(2‐Phenoxyethyl)‐2H‐benzo[e][1,2,4]thiadiazine‐1,1‐dioxide] | 975.3 ± 3.68 µM | 9.41 | 58% |  | 0% | 6.36 | 153 µM | 7% | 0% | 103 µM |  |  |  | 104 ± 4.53 µM | both host cell and parasite death; also recorded: killed both parasite and host cell | 153 ± 7.92 µM |

From article PMC11741150, “Synthesis and In Vitro Antileishmanial Efficacy of Novel Ethylene Glycol Analogues of Benzothiadiazine‐1,1‐dioxide” (Chemistry & Biodiversity, 2024)
